Source: article PMC8580996, “2-Oxoglutarate derivatives can selectively enhance or inhibit the activity of human oxygenases” (Nature Communications, 2021)
Values joined by “and” are separate entries in the source; they are usually repeats but may differ in a detail not shown here. Identical values can stand only once. Blank lines part the entries; values can stand above or below the compound they belong to.

What was measured:
Format in all cases: biochemical
[1] = target: T1, FIH (Homo sapiens, UniProt Q9NWT6); assay: Competition assay in a single reaction vessel, FIH-catalyzed hydroxylation (SPE-MS)
T1 sequence (Q9NWT6 whole entry): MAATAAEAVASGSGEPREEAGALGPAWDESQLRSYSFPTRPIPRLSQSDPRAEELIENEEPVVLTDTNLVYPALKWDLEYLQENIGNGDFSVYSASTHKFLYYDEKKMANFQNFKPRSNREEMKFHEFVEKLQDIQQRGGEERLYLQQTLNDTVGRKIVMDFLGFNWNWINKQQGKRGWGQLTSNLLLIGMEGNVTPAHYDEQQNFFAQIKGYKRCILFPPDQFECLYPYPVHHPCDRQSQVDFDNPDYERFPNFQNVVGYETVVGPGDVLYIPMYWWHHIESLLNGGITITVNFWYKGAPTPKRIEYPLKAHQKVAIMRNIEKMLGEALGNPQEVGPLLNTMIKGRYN
Experimental: Mean of three independent runs (n = 3; mean ± SD). […] Cosubstrates: a 20 μM 2OG; b 20 μM 2OG; c 20 μM 1; d 20 μM 12; e 20 μM 12 and 100 μM 2OG; f 100 μM 14. Source data are provided as a Source Data file.
Mean of three independent runs (n = 3; mean ± SD). […] Source data are provided as a Source Data file.
Peptide turnover was monitored by SPE-MS using the same instrument configuration (with the exception that the peptides were eluted from the SPE cartridge with 0.1%v/v aqueous formic acid in 80/20 v/v acetonitrile/water) as described above.
FIH and AspH-catalyzed peptide hydroxylations were analyzed simultaneously using SPE-MS as described in the
Methods section; competition experiments were performed in the same reaction vessel using equimolar 2OG
oxygenase and substrate concentrations. […]
Source data are provided as a Source Data file.
FIH and AspH-catalyzed peptide hydroxylations were analyzed simultaneously using SPE-
MS as described in the Methods section; competition experiments were performed in the same reaction vessel
using equimolar 2OG oxygenase and substrate concentrations. […]
2OG, 100 μM 14. Source data are provided as a Source Data file.

[2] = target: T1, FIH; assay: SPE-MS FIH turnover (cosubstrate) assay in the absence of 2OG; conditions: 330 μM 2OG or 2OG derivative, no 2OG, t = 15 min
Experimental: The ability of 35 synthetic C3/C4-substituted 2OG derivatives, which were prepared via a reported procedure (Supplementary Fig. 1 and Supplementary Methods)[21], to sustain catalysis by purified recombinant FIH in the absence of 2OG was examined using an assay directly monitoring substrate depletion and product formation (i.e., a +16 Da mass shift) by solid-phase extraction (SPE) coupled to mass spectrometry (SPE-MS)[44],[45]. […] (i.e. CA1–20)[47], were used as FIH substrates to test for potential substrate-dependent differences in terms of cosubstrate analog selectivity.
Assay samples were aspirated under vacuum for 0.6 s and loaded onto a C4 SPE cartridge. After loading, the C4 SPE cartridge was washed with 0.1%v/v aqueous formic acid to remove non-volatile buffer salts (5.5 s, 1.5 mL/min). […] The mass spectrometer was operated using the MassHunter Workstation B.08.00 software (Agilent), the mass spectrometer parameters were: capillary voltage (4000 V), nozzle voltage (1000 V), fragmentor voltage (365 V), gas temperature (280 °C), gas flow (13 L/min), sheath gas temperature (350 °C), sheath gas flow (12 L/min). […] Data were exported into Microsoft Excel and used to calculate the % conversion of the hydroxylation reaction using the equation: % conversion = 100 × (integral product peptide)/(integral substrate peptide+integral product peptide). […] Z′-factors were calculated according to the cited literature using Microsoft Excel (Supplementary Fig. 26)[83].

[3] = target: T1, FIH; assay: 1H NMR assay of FIH-catalyzed oxidative decarboxylation of cosubstrate, with SPE-MS of final mixture; conditions: 5 μM FIH, 150 μM CA1-20, 150 μM cosubstrate
Experimental: Supplementary Figure 2. […] FIH- […]
catalyzed oxidative decarboxylation of 2OG was monitored using a Bruker AVIII 700 NMR machine equipped with a 5 mm 1H(13C/15N) inverse cryoprobe; spectra were analyzed using the Bruker TopSpin 3.6.1 software.
50 μM ammonium iron(II) sulfate hexahydrate (FAS, (NH4)2Fe(SO4)2·6H2O) in 50 mM aqueous Tris-d11 containing 10% v/v D2O (pH 7.5, 25° C). The ratio of the CA 1-20 peptide and the hydroxylated CA 1-20(Ox) peptide, which is the product of the F IH-catalyzed hydroxylation reaction, was determined using SPE-MS after NMR […]
(a) Close-up (3.0-2.2 ppm) of the 1H NMR spectrum of commercial 2OG in 50 mM aqueous Tris-d11 containing 10%v/v D2O (pH 7.5, 25° C); (b) Close-up (3.0-2.2 ppm) of the 1H NMR spectrum of commercial succinate in 50 […]
FIH-catalyzed oxidative decarboxylation of 3-methyl-2OG (1) was monitored using a Bruker AVIII 700 NMR machine equipped with a 5 mm 1H(13C/15N) inverse cryoprobe; spectra were analyzed using the […]
Bruker TopSpin 3.6.1 software. […]
in 50 mM aqueous Tris -d11 containing 10% v/v D2O (pH 7.5, 25° C). The ratio of the CA 1-20 peptide and the hydroxylated CA 1-20(Ox) peptide, which is the product of the FIH -catalyzed hydroxylation reaction, was […]
(a) Close -up (3.4 -0.9 ppm) of the 1H NMR spectrum of synthetic 1 in 50 mM aqueous Tris-d11 containing 10% v/v D2O (pH 7.5, 2 5° C); ( b) Close -up (3.4 -0.9 ppm) of the 1H NMR spectrum of commercial 2 -methylsuccinate ( 36) […]
FIH-catalyzed oxidative decarboxylation of 4-methyl-2OG (12) was monitored using a Bruker AVIII 700 NMR machine equipped with a 5 mm 1H(13C/15N) inverse cryoprobe; spectra were analyzed using the Bruker TopSpin 3.6.1 software.
(NH4)2Fe(SO4)2·6H2O) in 50 mM aqueous Tris-d11 containing 10% v/v D2O (pH 7.5, 25° C). The ratio of the CA 1-20 peptide and the hydroxylated CA 1-20(Ox) peptide, which is the product of the FI H-catalyzed hydroxylation […]
(a) Close -up (3.3 -0.9 ppm) of the 1H NMR spectrum of synthetic 12 in 50 mM aqueous Tris-d11 containing 10% v/v D2O (pH 7.5, 25° C); ( b) Close -up (3.4 -0.9 ppm) of the 1H NMR spectrum of commercial 2 -methylsuccinate ( 36)

substrate hydroxylation (% conversion) ([1]; Fig 2a, 20 μM 2OG, CA1-20, 0 min): 14.1515 and 16.7791 and 11.5447
substrate hydroxylation (% conversion) ([1]; Fig 2a, 20 μM 2OG, CA1-20, 0.703167 min): 47.9481 and 47.8258 and 38.5441
substrate hydroxylation (% conversion) ([1]; Fig 2a, 20 μM 2OG, CA1-20, 2.10933 min): 78.9866 and 77.8293 and 70.1307
substrate hydroxylation (% conversion) ([1]; Fig 2a, 20 μM 2OG, CA1-20, 2.8135 min): 85.5974 and 84.4447 and 78.5645
substrate hydroxylation (% conversion) ([1]; Fig 2a, 20 μM 2OG, CA1-20, 3.51633 min): 89.6698 and 89.0396 and 84.1833
substrate hydroxylation (% conversion) ([1]; Fig 2a, 20 μM 2OG, CA1-20, 4.22 min): 92.631 and 91.777 and 88.07
substrate hydroxylation (% conversion) ([1]; Fig 2a, 20 μM 2OG, CA1-20, 4.92317 min): 94.369 and 93.7454 and 90.6935
substrate hydroxylation (% conversion) ([1]; Fig 2a, 20 μM 2OG, CA1-20, 5.62833 min): 95.7579 and 95.0911 and 92.7125
substrate hydroxylation (% conversion) ([1]; Fig 2a, 20 μM 2OG, CA1-20, 6.33133 min): 97.057 and 96.0828 and 94.1188
substrate hydroxylation (% conversion) ([1]; Fig 2a, 20 μM 2OG, CA1-20, 7.03583 min): 97.7828 and 96.6689 and 95.1866
substrate hydroxylation (% conversion) ([1]; Fig 2a, 20 μM 2OG, CA1-20, 7.73917 min): 98.8257 and 97.1902 and 95.7428
substrate hydroxylation (% conversion) ([1]; Fig 2a, 20 μM 2OG, CA1-20, 8.444 min): 99.4037 and 97.3768 and 96.3319
substrate hydroxylation (% conversion) ([1]; Fig 2a, 20 μM 2OG, CA1-20, 9.1485 min): 99.7225 and 97.4249 and 96.6951
substrate hydroxylation (% conversion) ([1]; Fig 2a, 20 μM 2OG, CA1-20, 9.853 min): 99.5637 and 97.3528 and 97.1366
substrate hydroxylation (% conversion) ([1]; Fig 2a, 20 μM 2OG, CA1-20, 10.558 min): 100 and 97.2891 and 96.8671
substrate hydroxylation (% conversion) ([1]; Fig 2a, 20 μM 2OG, CA1-20, 11.2623 min): 100 and 94.1661
substrate hydroxylation (% conversion) ([1]; Fig 2a, 20 μM 2OG, HIF-1a788-822, 0.703167 min): 6.1581 and 8.558 and 6.1761
substrate hydroxylation (% conversion) ([1]; Fig 2a, 20 μM 2OG, HIF-1a788-822, 2.10933 min): 16.8685 and 19.2149 and 14.7272
substrate hydroxylation (% conversion) ([1]; Fig 2a, 20 μM 2OG, HIF-1a788-822, 2.8135 min): 22.0351 and 24.2966 and 18.9489
substrate hydroxylation (% conversion) ([1]; Fig 2a, 20 μM 2OG, HIF-1a788-822, 3.51633 min): 26.9176 and 28.8009 and 23.0891
substrate hydroxylation (% conversion) ([1]; Fig 2a, 20 μM 2OG, HIF-1a788-822, 4.22 min): 30.085 and 33.3713 and 26.7919
substrate hydroxylation (% conversion) ([1]; Fig 2a, 20 μM 2OG, HIF-1a788-822, 4.92317 min): 34.7093 and 37.5052 and 30.4684
substrate hydroxylation (% conversion) ([1]; Fig 2a, 20 μM 2OG, HIF-1a788-822, 5.62833 min): 37.941 and 41.581 and 34.0768
substrate hydroxylation (% conversion) ([1]; Fig 2a, 20 μM 2OG, HIF-1a788-822, 6.33133 min): 40.9748 and 45.5421 and 37.689
substrate hydroxylation (% conversion) ([1]; Fig 2a, 20 μM 2OG, HIF-1a788-822, 7.03583 min): 44.2421 and 48.7776 and 41.0727
substrate hydroxylation (% conversion) ([1]; Fig 2a, 20 μM 2OG, HIF-1a788-822, 7.73917 min): 46.5287 and 52.1147 and 44.2887
substrate hydroxylation (% conversion) ([1]; Fig 2a, 20 μM 2OG, HIF-1a788-822, 8.444 min): 50.2071 and 55.1688 and 46.8395
substrate hydroxylation (% conversion) ([1]; Fig 2a, 20 μM 2OG, HIF-1a788-822, 9.1485 min): 52.5573 and 57.8623 and 50.003
substrate hydroxylation (% conversion) ([1]; Fig 2a, 20 μM 2OG, HIF-1a788-822, 9.853 min): 55.5664 and 60.5077 and 52.8227
substrate hydroxylation (% conversion) ([1]; Fig 2a, 20 μM 2OG, HIF-1a788-822, 10.558 min): 57.4116 and 62.9095 and 55.0617
substrate hydroxylation (% conversion) ([1]; Fig 2a, 20 μM 2OG, HIF-1a788-822, 11.2623 min): 59.0832 and 64.3072 and 56.3348
conversion of CA1–20 ([1]; Fig 2a, 20 μM 2OG, both FIH substrates in one vessel, after 5 min): > 90%
conversion of HIF-1α788–822 ([1]; Fig 2a, 20 μM 2OG, both FIH substrates in one vessel, after 12 min): ~ 60%
substrate hydroxylation (% conversion) ([1]; Fig 2b, 20 μM 2OG, FIH, 1.19933 min): 58.5759 and 53.8983
FIH-catalyzed CA1–20 hydroxylation ([1]; Fig 2b, 20 μM 2OG, after 4 min): > 80%
FIH-catalyzed substrate turnover ([1]; Fig 4a, 0.5 mM 2OG, absence of 13, after 4 min): ~ 80%
FIH activity, %-substrate conversion ([2]; CA1–20 substrate): > 95%
FIH activity, %-substrate conversion ([2]; HIF-1α788–822 substrate): ~50%
hydroxylation of CA1-20 peptide in final reaction mixture (SPE-MS) ([3]; t = 10 min): > 95%
FIH-catalyzed conversion of cosubstrate to succinate / 2-methylsuccinate (1H NMR) ([3]; within 5 min): ~ 70%
Structure (SMILES): O=C(O)CCC(=O)C(=O)O [2OG, 2-Oxoglutarate]

FIH activity, %-substrate conversion ([2]; CA1–20 substrate): ~75%
FIH activity, %-substrate conversion ([2]; HIF-1α788–822 substrate): ~10%
Structure (SMILES): CCC(CC(=O)C(=O)O)C(=O)O (stereo not shown) [compound 14, 4-ethyl-2OG]

FIH activity, %-substrate conversion ([2]; CA1–20 substrate): ^c<1% ^d<1%
FIH activity, %-substrate conversion ([2]; HIF-1α788–822 substrate): ^c<1% ^d<1%
Structure (SMILES): O=C(O)C(=O)CC(CCCc1ccccc1)C(=O)O (stereo not shown) [compound 18, 4-(3-phenylpropyl)-2OG]

FIH activity, %-substrate conversion ([2]; CA1–20 substrate): ~5%
FIH activity, %-substrate conversion ([2]; HIF-1α788–822 substrate): ~2%
Structure (SMILES): O=C(O)C(=O)C1CCC(C(=O)O)C1 (stereo not shown) [compound 22, 3-(carboxycarbonyl)cyclopentane-1-carboxylic acid]
